Experimental data reported in patent US8691870B2, “Use of isothiocyanates for treating cancer” (Mackay Memorial Hospital, priority 2011, dated 2014).
Where two headings read alike, the source gives them in different places.

What was measured:
Format in all cases: cell-based, human
PANC-1 cells [1] = assay: Radiation treatment and clonogenic assay, PANC-1 cells
Description: (§1) The drugs were then washed out, and cells were subject to radiation treatment. Specifically, 6 MeV electron beam energy was delivered by a linear accelerator (Clinac 1800, Varian Associates, Inc., Palo Alto, Calif., USA) with a rate of 2.4 Gy/min at various dose including 0, 0.5, 1, 2 and 4 Gy in a single fraction. Full electron equilibrium was ensured for each fraction by a parallel plate PR-60C ionization chamber ([…], Inc., Ramsey, N.Y., USA).
(§2) After radiation treatment, cells were returned to the culture for another 10 to 14 days; then were stained with 3% crystal violet and the numbers of colony (≧50 cells) were counted.
(§3) The colony is defined to consist of at least 50 cells.

[2] = test system: phosphorylated histone H3; assay: Immunoblot analysis of phosphorylated histone H3 in K562R cells; settings: FIG. 10
Method: (§4) Cultured cells were lysed by use of well known lysing buffer, and total amount of proteins were determined by Bradford method. […] The separated proteins were then transferred to nitrocellulose membrane and non-specific binding was removed by TBST buffer (0.8% NaCl, 0.02% KCl, 25 mM Tris-HCl/pH 8.0 and 0.1% Tween-20) containing 4% skim milk. Antibodies including p-Plk-1, p-Chk-1, p-Chk-2, p-Cdc2, GAPDH, α-tubulin, β-tubulin, and p-histone H3 (purchased from Transduction Laboratories, Lexington, Ky., USA), were respectively dissolved in TBST buffer containing 2% skim milk and incubated with the separated protein bands at 4° C. for at least over night; followed by incubation with horseradish conjugated secondary antibodies at room temperature for about 30 min, and then detected by ECL chemiluminesance detection kit (Amersham Pharmacia Biotech, US).

p-Chk-1 = assay: Immunoblot analysis of p-Chk-1 in K562R cells; settings: FIG. 7
Method: as §4

PANC-1 cells [3] = assay: Cell cycle analysis of PANC-1 cells; settings: 24 hours
Method: (§5) The fixed cells were then warmed up to room temperature and treated with RNAase A for about 30 min. Precipitated cells were collected by centrifugation and re-suspended in a buffer solution containing propidium iodine (20 μg/ml) before being subject to flow cytometry analysis, where cell numbers at respective cell cycles were determined.

[4] = test system: imatinib resistant CML K562R cells; assay: Liu's staining, morphology of imatinib resistant CML K562R cells; settings: 20 μM, indicates apoptosis and mitotic arrest
Description: (§6) The imatinib resistant human chronic myelogenous leukemia (CML) cell line K562R was induced by procedures described above in the “Materials and Methods” Section. Anti-proliferative activity of I7557 and I7557 were respectively assessed by cell viability and cell cycle analysis, as well as by immunoblot and Liu's Staining.

p-Chk-2 = assay: Immunoblot analysis of p-Chk-2 in K562R cells; settings: FIG. 8
Method: as §4

81T/VGH cells = assay: MTT cell viability assay on 81T/VGH cells; design: key to Cell viability (MTT reading), I / Cell viability (MTT reading), II / Cell viability (MTT reading), III / Cell viability (MTT reading), Average: absorbance at 570 nm; settings: 48 hours; for Cell viability (MTT reading), I: replicate I; for Cell viability (MTT reading), II: replicate II; for Cell viability (MTT reading), III: replicate III
Method: (§7) Cell lines used in the present disclosure include human chronic myelogenous leukemia (CML) cell line K562, Imatinib-resistant K562 cell line K562R, human pancreatic carcinoma, epithelial-like cell line PANC-1, human pancreatic cancer cell line BxPc-3, human large cell lung cancer cell line SEG-1, human esophageal squamous cell carcinoma line 81T/VGH and human esophageal adenocarcinoma line BE-3. Each cell lines were cultured and maintained in Dulbecco's modified Eagle media (DMEM) supplemented with 10% fetal calf serum, 100 IU/ml penicillin, 100 μg/ml streptomycin, and 2 mM glutamine in 5% CO2 at 37° C.
(§8) The absorbance of the solution at 570 nm was measured by spectrophotometer.

p-Plk-1 = assay: Immunoblot analysis of phosphorylated Plk-1 in K562R cells; settings: FIG. 6
Method: as §4

BE-3 cells = assay: MTT cell viability assay on BE-3 cells; design: key to Cell viability (MTT reading), I / Cell viability (MTT reading), II / Cell viability (MTT reading), Average / Cell viability (MTT reading), III: absorbance at 570 nm; settings: for Cell viability (MTT reading), I: replicate I; for Cell viability (MTT reading), II: replicate II
Method: as §7, §8

[5] = test system: imatinib resistant CML K562R cells; assay: Cell cycle analysis (flow cytometry) of imatinib resistant CML K562R cells; settings: 24 hours
Method: The CML cell line, K562R, was cultured in the presence of a continuous low dose of imatinib mesylate, which is also termed STI-571, to generate their resistance to imatinib. In operation, K562R cells were maintained in the DMEM supplemented with 10% fetal calf serum (FCS), 100 IU/ml penicillin, 100 μg/ml streptomycin, 2 mM glutamine and 0.2 μM imatinib in 5% CO2 at 37° C.
as §5, §6

BxPC-3 cells = assay: Radiation treatment and clonogenic assay, BxPC-3 cells
Description: as §1, §2, §3

cyclin B1 = assay: Immunoblot analysis of cyclin B1 in K562R cells; settings: FIG. 5
Method: as §4

β-tubulin = assay: Immunoblot analysis of β-tubulin in K562R cells; settings: FIG. 4
Method: as §4

p-Cdc2 kinase = assay: Immunoblot analysis of p-cdc2 kinase in K562R cells; settings: FIG. 9
Method: as §4

CS(=O)(=O)CCCCCCN=C=S [I7557, 6-methylsulfonylhexyl isothiocyanate]
Number of colonies (clonogenic assay) (PANC-1 cells [1]; PANC-1, 5 μM pre-treatment 24 hours, radiation 0 Gy): 60 | Number of colonies (clonogenic assay) (PANC-1 cells [1]; PANC-1, 5 μM pre-treatment 24 hours, radiation 0.5 Gy): 63 | Number of colonies (clonogenic assay) (PANC-1 cells [1]; PANC-1, 5 μM pre-treatment 24 hours, radiation 1 Gy): 59 | Number of colonies (clonogenic assay) (PANC-1 cells [1]; PANC-1, 5 μM pre-treatment 24 hours, radiation 2 Gy): 48 | Number of colonies (clonogenic assay) (PANC-1 cells [1]; PANC-1, 5 μM pre-treatment 24 hours, radiation 4 Gy): 20 | susceptibility of cells to radiation treatment (PANC-1 cells [1]; PANC-1, 10 μM): enhancing the susceptibility | Number of colonies (clonogenic assay) (PANC-1 cells [1]; PANC-1, 10 μM pre-treatment 24 hours, radiation 0 Gy): 41 | Number of colonies (clonogenic assay) (PANC-1 cells [1]; PANC-1, 10 μM pre-treatment 24 hours, radiation 0.5 Gy): 26 | Number of colonies (clonogenic assay) (PANC-1 cells [1]; PANC-1, 10 μM pre-treatment 24 hours, radiation 1 Gy): 35 | Number of colonies (clonogenic assay) (PANC-1 cells [1]; PANC-1, 10 μM pre-treatment 24 hours, radiation 2 Gy): 19 | Number of colonies (clonogenic assay) (PANC-1 cells [1]; PANC-1, 10 μM pre-treatment 24 hours, radiation 4 Gy): 6 | levels of phosphorylated histone H3 vs control cells [2]: significantly higher | level of p-Chk-1 vs control (p-Chk-1): decreased | Cell Cycle (%) G0/G1 (PANC-1 cells [3]; 10 μM): 45.43 ± 1.27% | Cell Cycle (%) G2/M (PANC-1 cells [3]; 10 μM): 28.38 ± 2.41% | Cell Cycle (%) S (PANC-1 cells [3]; 10 μM): 26.19 ± 3.28% | Cell Cycle (%) Sub-G1% (PANC-1 cells [3]; 10 μM): 0.79 ± 0.05% | Cell Cycle (%) G0/G1 (PANC-1 cells [3]; 20 μM): 24.71 ± 2.98% | Cell Cycle (%) G2/M (PANC-1 cells [3]; 20 μM): 55.84 ± 0.63% | Cell Cycle (%) S (PANC-1 cells [3]; 20 μM): 19.45 ± 3.32% | Cell Cycle (%) Sub-G1% (PANC-1 cells [3]; 20 μM): 2.05 ± 0.44% | Cell morphology after Liu's staining [4]: round up with an appearance of a balloon | level of p-Chk-2 vs control (p-Chk-2): decreased | Cell viability (MTT reading), Average (81T/VGH cells; 10 μM): 1.514 ± 0.104 | Cell viability (MTT reading), I (81T/VGH cells; 10 μM): 1.324 | Cell viability (MTT reading), II (81T/VGH cells; 10 μM): 1.682 | Cell viability (MTT reading), III (81T/VGH cells; 10 μM): 1.537 | Cell viability (MTT reading), Average (81T/VGH cells; 20 μM): 0.965 ± 0.086 | Cell viability (MTT reading), I (81T/VGH cells; 20 μM): 0.804 | Cell viability (MTT reading), II (81T/VGH cells; 20 μM): 0.991 | Cell viability (MTT reading), III (81T/VGH cells; 20 μM): 1.100 | inhibition at 10 µM (81T/VGH cells; Homo sapiens, 10 μM): 30.6 ± 5.18% | inhibition at 20 µM (81T/VGH cells; Homo sapiens, 20 μM): 55.4 ± 6.11% | level of phosphorylated Plk-1 vs control (p-Plk-1): increased | Cell viability (MTT reading), Average (BE-3 cells; BE-3, 10 μM, 48 hours): 1.635 ± 0.078 | Cell viability (MTT reading), I (BE-3 cells; BE-3, 10 μM, 48 hours): 1.581 | Cell viability (MTT reading), II (BE-3 cells; BE-3, 10 μM, 48 hours): 1.534 | Cell viability (MTT reading), Average (BE-3 cells; BE-3, 20 μM, 48 hours): 1.151 ± 0.028 | Cell viability (MTT reading), I (BE-3 cells; BE-3, 20 μM, 48 hours): 1.105 | Cell viability (MTT reading), II (BE-3 cells; BE-3, 20 μM, 48 hours): 1.147 | Cell viability (MTT reading), III (BE-3 cells; BE-3, 20 μM, 48 hours, replicate III): 1.201 | inhibition at 10 µM (BE-3 cells; Homo sapiens, BE-3, 10 μM, 48 hours): 26.8 ± 1.05% | inhibition at 20 µM (BE-3 cells; Homo sapiens, BE-3, 20 μM, 48 hours, read-out: % of inhibition): 48.4 ± 1% | inhibition at 20 µM (BE-3 cells; Homo sapiens, BE-3, 20 μM, read-out: cancerous cells' growth inhibition): ~50% | Cell Cycle (%) G0/G1 ([5]; 5 μM): 30.79 ± 2.28% | Cell Cycle (%) G2/M ([5]; 5 μM): 22.84 ± 0.60% | Cell Cycle (%) S ([5]; 5 μM): 46.38 ± 1.73% | Cell Cycle (%) Sub-G1% ([5]; 5 μM): 0.52 ± 0.07% | Cell Cycle (%) G0/G1 ([5]; 10 μM): 30.52 ± 0.96% | Cell Cycle (%) G2/M ([5]; 10 μM): 18.40 ± 1.16% | Cell Cycle (%) S ([5]; 10 μM): 51.08 ± 0.36% | Cell Cycle (%) Sub-G1% ([5]; 10 μM): 1.18 ± 0.08% | Cell Cycle (%) G0/G1 ([5]; 20 μM): 11.54 ± 6.51% | Cell Cycle (%) G2/M ([5]; 20 μM): 65.10 ± 8.16% | Cell Cycle (%) S ([5]; 20 μM): 23.36 ± 2.45% | Cell Cycle (%) Sub-G1% ([5]; 20 μM): 5.33 ± 1.46% | Number of colonies (clonogenic assay) (BxPC-3 cells; BxPC-3, 5 μM pre-treatment 24 hours, radiation 0 Gy): 33 | Number of colonies (clonogenic assay) (BxPC-3 cells; BxPC-3, 5 μM pre-treatment 24 hours, radiation 0.5 Gy): 37 | Number of colonies (clonogenic assay) (BxPC-3 cells; BxPC-3, 5 μM pre-treatment 24 hours, radiation 1 Gy): 39 | Number of colonies (clonogenic assay) (BxPC-3 cells; BxPC-3, 5 μM pre-treatment 24 hours, radiation 2 Gy): 29 | Number of colonies (clonogenic assay) (BxPC-3 cells; BxPC-3, 5 μM pre-treatment 24 hours, radiation 4 Gy): 9 | Number of colonies (clonogenic assay) (BxPC-3 cells; BxPC-3, 10 μM pre-treatment 24 hours, radiation 0 Gy): 16 | Number of colonies (clonogenic assay) (BxPC-3 cells; BxPC-3, 10 μM pre-treatment 24 hours, radiation 0.5 Gy): 15 | Number of colonies (clonogenic assay) (BxPC-3 cells; BxPC-3, 10 μM pre-treatment 24 hours, radiation 1 Gy): 8 | Number of colonies (clonogenic assay) (BxPC-3 cells; BxPC-3, 10 μM pre-treatment 24 hours, radiation 2 Gy): 7 | Number of colonies (clonogenic assay) (BxPC-3 cells; BxPC-3, 10 μM pre-treatment 24 hours, radiation 4 Gy): 1 | susceptibility of cells to radiation treatment (BxPC-3 cells; BxPc-3, 10 μM): enhancing the susceptibility | level of cyclin B1 vs control (cyclin B1): increased | β-tubulin levels vs control cells (β-tubulin): lowered | level of p-cdc2 kinase vs control (p-Cdc2 kinase): decreased
